Series [1] in a line: Cryo-TEM and small angle x-ray diffraction of hydrogel fibers. It counts as physicochemical. The procedure: Cryo-transmission Electron Microscopy Measurements
A gel was prepared following one of the procedures described above. A small amount of the gel was carefully deposited on a bare copper grid, using a spatula. The excess solution was blotted with a filter paper, leaving a thin sample film. The grid was subsequently plunged into liquid ethane for vitrification. The vitrified specimens were transferred to a Gatan model 626 cryostage and observed in a Philips CM 120 electron microscope operating at 120 kV. The images were recorded under low-dose conditions at about −170° C. The samples were all prepared in duplo.
Presumably, the lack of (C3-)symmetry prevents the aggregation of the fibers into large bundles from taking place, and leads to the highly uniform and very low fiber diameter, the latter in turn leading to clear gel.
The left-side image is a low magnification, the right-side image a high magnification (white bar at the upper left-hand quarter in the right-side image corresponds to 4.5 nm). […] The high uniformity of the fiber thicknesses can be clearly observed in the close-up image on the right.

Series [2] can be described thus: Gel test (vial inversion). In kind it is physicochemical. The procedure:
A weighed amount of solid was dissolved in 0.5 or 1 ml of the solvent in a closed 2.0 ml vial using a heating gun or a heating block and subsequently slowly cooled to room temperature by standing in the air. Gelation was determined by turning the vial upside down and gentle shaking. If no flow of the mass was observed, the mass was defined to be a gel. Alternatively, a weighed amount of solid was dissolved in 1 mL of solvent by the addition of acid or base. The subsequent addition of base or acid then gave gelation. Alternatively, a weighed amount of solid was dissolved in a small amount of solvent. The subsequent addition of a large amount of non-solvent then gave gelation. Alternatively, the solution of gelator/thickener was added to the non-solvent, resulting in gelation. Alternatively, a weighed amount of solid was mixed with 1 mL of solvent by sonication. After stopping the sonication, gelation occurred. Alternatively a weighed amount of solid was mixed with 1 mL of solvent by brief vortexing after which gelation occurred. Alternatively a weighed amount of solid was mixed with 1 mL of solvent after which gelation occurred.

In series [3] the test system is α-chymotrypsin. The experiment in a line: α-chymotrypsin-induced cleavage followed by fluorescence detection of released 6-AQ. In kind it is biochemical. The settings on record: for Km / Vmax: from Lineweaver-Burke and Eadie-Hofstee plots, for 12 only points where V still increased; for Cleavage (6-AQ formation) by α-chymotrypsin: substrate 7.54 mM (12 as gel, 39 as solution), α-chymotrypsin 40 mM as printed. From the text: In order to investigate the enzymatic cleavage of a gelator-drug conjugate, we selected the enzyme α-chymotrypsin, which is capable of cleaving amide bonds at the C═O terminus of L-phenylalanine-based substrates like compound 12 (CHex(AmPhe-6AQ)(AmEtOEtOH)2), resulting here in the release of the fluorogenic “model drug” 6-aminoquinoline (6-AQ). This system allows easy monitoring of the cleavage kinetics owing to the fact that the excitation and emission maxima for the amide and amino form of this compound are adequately separated (amide form: λex=315 nm, λem=370 nm, amine form: λex=339 nm, λem=550 nm).
Gelator 12 was dissolved in a small amount of DMSO (100 μL), whereas α-chymotrypsin was dissolved in a buffer solution (Tris-HCl, 0.1 M, pH 7.75, 900 μL). […] In order to determine the effect of gelation on the enzymatic cleavage, the water-soluble, non-gelating, model substrate 39 was synthesized with a structure similar to that of gelator 12.
Fluorescence experiments were carried out in which the α-chymotrypsin-induced cleavage of compounds 12 and 39 was followed through the detection of 6-AQ.
Legend to FIG. 2 (from bottom to top): Trace a: gel of gelator 12 (0.5 wt %=7.54 mM); trace b: gel of gelator 12 (0.5 wt %=7.54 mM)+α-chymotrypsin ([…]); trace c: gel of gelator 12 (0.5 wt %=7.54 mM)+compound 39 (7.54 mM)+α-chymotrypsin (40 μM); trace d: solution of compound 39 (7.54 mM)+α-chymotrypsin (40 mM)
Performing the cleavage experiments for both 12 and 39 at different substrate concentrations and plotting the initial rates as a function of the substrate concentration (i.e., 12 or 39) results in the points plotted in FIG. 3. […] The initial rates for gelator 12, however, increase up to a certain point, after which they remain the same, even at much higher concentrations. From the corresponding Lineweaver-Burke and Eadie-Hofstee plots, values for Vmax and Km could be obtained for both compounds. […] From these points, the following values were calculated. […] Using these values for Vmax and Km, the theoretical curves could be plotted for both compounds. For compound 39, the experimentally determined points fitted very well on the curve. […] Below this concentration, a sample of 12 exists as a solution. So, even though the molecules in a gel are in constant equilibrium with those in solution and the overall gelator concentration may increase well above the CGC (thus bringing about gelation), the concentration of gelator in solution can never exceed the CGC. The fact that the initial rate for 12 no longer increases once the substrate (i.e., gelator) concentration exceeds the CGC, proves that only the gelator molecules in solution can be cleaved by the enzyme.

The nature of series [4]: TEM particle size of a compound of interest included in gels of gelator 12. It counts as physicochemical. Conditions: for Crystal size, reference without gelator: DMSO/H2O 100 μL/900 μL. Here is the method:
Transmission Electron Microscopy Measurements
A gel was prepared following one of the procedures described above. A small amount of the gel was carefully deposited on a carbon-coated copper grid, using a spatula. The excess solution was blotted with a filter paper, leaving a thin sample film. The samples were examined using a JEOL 1200EX (80-100 kV) and pictures were taken of representative parts. The samples were all prepared in duplo.
To a solution containing 4 mg (6.0×10^−3 mmol) of gelator 12 (CHex(AmPhe-6AQ)(AmEtOEtOH)2) and 1.22 mg (6.0×10^−3 mmol) of pyrene in 100 μL of DMSO, 900 μL of distilled water were quickly added.
To determine the stability in time of pyrene particles in a gel, samples were prepared as described in the previous paragraph and examined with TEM after 7 days, 18 days, 1 month and 2 months. As reference, samples containing only pyrene in DMSO/H2O (100 μL/900 μL) were also prepared. Moreover, to determine the effect of the gelator in solution, i.e., not in the gel, samples containing 4 mg (6.0×10^−3 mmol) of gelator 12 (CHex(AmPhe-6AQ)(AmEtOEtOH)2), 1.22 mg (6.0×10^−3 mmol) of pyrene, 100 μL of DMSO and 900 μL of 1N HCl were prepared. […] All samples were kept at room temperature, in the dark.
To a solution containing 1.96 mg (2.9×10^−3 mmol) of gelator 12 (CHex(AmPhe-6AQ)(AmEtOEtOH)2) and 1.0 mg (2.9×10^−3 mmol) of danazol in 50 μL of DMSO, 950 μL of distilled water were quickly added. […] In a reference sample consisting only of danazol in 100 μL of DMSO and 900 μL of distilled water, rod-shaped danazol particles are 0.5-10 μm wide and 15-53 μm long. […]

As usually defined, the Km is the substrate concentration at which the rate is half of its maximum. The Vmax is the rate approached at saturating substrate.

In the case of `O=C(NCCOCCO)[C@@H]1C[C@H](C(=O)NCCOCCO)C[C@H](C(=O)N[C@@H](Cc2ccccc2)C(=O)Nc2ccc3ncccc3c2)C1` [Compound 12, CHex(AmPhe-6AQ)(AmEtOEtOH)2], the Gel fiber thickness result in series [1] is given as “about 4.5 nm”. Also, the Gel test result in series [2] (0.3 mg/mL in H2O or PBS) is “clear gel”; in series [2] (0.5 mg/mL in H2O/DMSO (19:1)) it was “clear gel”; in series [2] (0.6 mg/mL in H2O/EtOH (19:1)), “clear gel”; in series [2] (25 mg/ml in EtOH), “turbid gel”. Moreover, the Gel formation entry in series [2] (4 mg with pyrene in DMSO 100 μL + 1N HCl 900 μL) is given as “does not gelate”; in series [2] (DMSO 100 μL + α-chymotrypsin in Tris-HCl 0.1 M pH 7.75 900 μL, rapid addition), “clear, homogeneous gel”. In series [2] (H2O:DMSO=9:1), the “Critical gelator concentration (CGC)” value turned out to be 1.5 mM. Moreover, the Km in series [3] was determined as 1.8 mM. The Vmax in series [3] was 4.1 µmol/min. In series [3] (gel 0.5 wt % = 7.54 mM, fluorescence at 550 nm), the “Cleavage (6-AQ formation) in the absence of α-chymotrypsin” value is “no cleavage”. In addition, the “experimentally determined Vmax” value in series [3] (plateau of initial rate above the CGC) was determined as 1.8 µmol/min. The “Cleavage (6-AQ formation) by α-chymotrypsin” value in series [3] is given as “minor cleavage”.

On to `O=C(O)[C@H]1C[C@@H](C(=O)N[C@@H](CO)C(=O)Nc2ccc3ccccc3c2)C[C@@H](C(=O)N[C@@H](CO)C(=O)Nc2ccc3ccccc3c2)C1` [Compound 36, CHex(AmSerAmβNA)2(COOH)], for which the Gel test entry is “gel” in series [2] (DMSO/CH2Cl2 mixtures); “gel” in series [2] (DMSO/EtOH mixtures); “gel” in series [2] (DMSO/H2O mixtures); “gel” in series [2] (DMSO/MeCN mixtures); “gel” in series [2] (DMSO/toluene mixtures); “gel” in series [2] (H2O, concentration not given). Besides, the Gel test result in series [2] (H2O/t-BuOH (TBA/H2O) mixtures) was “gel”; in series [2] (MeCN) it was “weak gel”.

Turning to `CC(C)C[C@H](NC(=O)[C@@H]1C[C@H](C(=O)O)C[C@H](C(=O)N[C@@H](CC(C)C)C(=O)Nc2ccc3ccccc3c2)C1)C(=O)Nc1ccc2ccccc2c1` [Compound 37, CHex(AmLeuAmβNA)2(COOH)], the Gel test result in series [2] (DMSO/H2O mixtures), in series [2] (H2O/MeOH mixtures), in series [2] (H2O/iPrOH mixtures) and in series [2] (H2O/t-BuOH (TBA/H2O) mixtures) was “gel” throughout.

In the case of `NC(=O)CC[C@H](NC(=O)[C@@H]1C[C@H](C(=O)O)C[C@H](C(=O)N[C@@H](CCC(N)=O)C(=O)Nc2ccc3ccccc3c2)C1)C(=O)Nc1ccc2ccccc2c1` [Compound 38, CHex(AmGlnAmβNA)2(COOH)], the Gel test result in series [2] (H2O, concentration not given) is “gel”.

With `O=C(O)CCCC(=O)N[C@@H](Cc1ccccc1)C(=O)Nc1ccc2ncccc2c1` [Compound 39, reference compound], the Solubility in water entry in series [2] was “water-soluble”. In addition, the Gelation behaviour entry in series [2] (water) was “non-gelating”. Moreover, in series [3], the Km worked out at 4.9 mM, the maximal velocity (Vmax) turned out to be 22.3 µmol/min and the “Cleavage (6-AQ formation) by α-chymotrypsin” value is “more readily cleaved”.

In the case of `C#C[C@]1(O)CC[C@H]2[C@@H]3CCC4=Cc5oncc5C[C@]4(C)[C@H]3CC[C@@]21C` [danazol], the “Length of rod-shaped particles, reference without gelator” value in series [4] (DMSO 100 μL + water 900 μL) is on record as 15-53 μm. In addition, the “Width of rod-shaped particles, reference without gelator” value in series [4] (DMSO 100 μL + water 900 μL) is 0.5-10 μm. The “Presence of rod-shaped particles” value in series [4] (freeze-dried gel of 12, 5:1) is reported as “no rod-shaped particles were present”; in series [4] (gel of 12, 2:1) it was “no rod-shaped danazol particles are present”; in series [4] (gel of 12, 5:1) it was “no rod-shaped particles are present”. Further, the “Length of rod-shaped particles in gel” value in series [4] (gel of 12, 1:1, some particles) was 9 μm. The “Width of rod-shaped particles in gel” value in series [4] (gel of 12, 1:1, some particles) amounted to 0.7 μm. In addition, the “Size of some particles in gel” value in series [4] (gel of 12, 2:1) is on record as 2 μm; in series [4] (gel of 12, 5:1), 400 nm. The “Size of very few particles in gel” value in series [4] (gel of 12, 2:1) was determined as 10 μm. For the same compound, the “Average particle size in gel” value in series [4] (gel of 12, gelator:danazol 1:1, DMSO/water 50 μL/950 μL) was 140-700 nm; in series [4] (gel of 12, gelator:danazol 2:1), 28 nm; in series [4] (gel of 12, gelator:danazol 5:1), 14 nm.

As for `c1cc2ccc3cccc4ccc(c1)c2c34` [pyrene], the “Crystal size, reference without gelator” value in series [4] (after 2 months) is 2-12 μm; in series [4] (after 7 days, 18 days or 1 month), 0.4-9 μm. Besides, in series [4] (gel of 12, 1:1, DMSO/H2O, after 1 month), the “Crystal size in gel” value is on record as around 150 nm. Besides, the “Particle size in gel” value in series [4] (gel of 12, 1:1, DMSO/H2O, after 7 days, room temperature, dark) is 37-185 nm; in series [4] (gel of 12, 1:1, DMSO/H2O, after 18 days) it was 30-190 nm. Moreover, the “Crystal size, gelator in solution” value in series [4] (with 12 1:1 in DMSO/1N HCl 100 μL/900 μL (not gelled), after 7 days) is 0.2-3 μm. In addition, in series [4] (with 12 1:1 in DMSO/1N HCl (not gelled), after 1 month), the “Size of larger crystals, gelator in solution” value amounted to 6 μm.

The values above are taken from patent US7534915B2, “Non-symmetrical gelling agent” (Applied Nanosystems B.V., priority 2003, dated 2009).
